The subject of assay [1] is Miapaca-2 cells. The assay can be described thus: MiaPaca-2 Cell Proliferation Assay (1). The format is cell-based. The conditions noted are these: Homo sapiens, MIA PaCa-2, single agent, read-out: MiaPaca2 (1) IC50. Put shortly:
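Resazurin was added after compound exposure and incubated 5-6 h, then fluorescence read at 540 nm excitation and 600 nm emission to give IC50.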

For assay [2], the target named is A-Raf kinase (SEQ. ID No: 1) (Homo sapiens (Human), UniProt P10398, Y301D/Y302D). The assay can be described thus: Biochemical Assay for A-Raf (1). The conditions noted are these: Table J, assay version (1); read-out: ARAF (1) IC50. A digest of the protocol:
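A-Raf Y301D/Y302D at 5.55 nM phosphorylates 30.1 nM MEK with 1 mM ATP in pH 7.5 Tris buffer, 1% DMSO. Activity was read continuously as NADH oxidation at 340 nm in a pyruvate kinase/lactate dehydrogenase coupled system for 6 h at 30 °C. Rates from 4–5 h were converted to percent inhibition, and IC50 came from a four-parameter fit.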

For assay [3], the system named is A375 cells. As to the kind of experiment: A375 Cell Proliferation Assay (1). The format is cell-based. The conditions noted are these: Homo sapiens, A-375. A digest of the protocol: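 Resazurin fluorescence (excitation 540 nm, emission 600 nm, after a further 5-6 h) gave IC50s from triplicate compound dilution series.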
For assay [4], the target named is C-Raf kinase (SEQ. ID NO: 3) (Homo sapiens (Human), UniProt P04049, Y340D/Y341D). The assay can be described thus: Biochemical Assay for C-Raf (1). The conditions noted are these: Table J, assay version (1); read-out: CRAF (1) IC50. A digest of the protocol:
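Coupled pyruvate kinase/LDH assay tracking NADH oxidation at 340 nm, with 0.43 nM C-Raf, 30.1 nM MEK and 1 mM ATP in pH 7.5 Tris buffer (15 mM MgCl2, 1% DMSO final). Read continuously for 6 h at 30 °C, rate taken from the 4–5 h window. IC50 from four-parameter fit of percent inhibition.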

Structures are written as SMILES. Bounds are passed on as bounds.

What is called IC50 is the concentration needed to halve the response being measured.

Sequence of C-Raf kinase (SEQ. ID NO: 3) (P04049 307-648 Y340D/Y341D): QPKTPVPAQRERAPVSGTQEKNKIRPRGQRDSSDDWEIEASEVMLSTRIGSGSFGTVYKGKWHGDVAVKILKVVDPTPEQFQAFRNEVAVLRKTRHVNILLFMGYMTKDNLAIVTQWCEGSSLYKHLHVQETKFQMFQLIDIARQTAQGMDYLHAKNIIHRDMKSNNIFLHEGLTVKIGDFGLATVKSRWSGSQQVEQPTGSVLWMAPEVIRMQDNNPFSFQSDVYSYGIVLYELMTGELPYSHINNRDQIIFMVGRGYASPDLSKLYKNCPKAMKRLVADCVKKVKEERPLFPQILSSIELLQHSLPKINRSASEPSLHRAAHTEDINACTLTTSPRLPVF
Sequence of A-Raf kinase (SEQ. ID No: 1) (P10398 other isoform, or with tags, fused parts or gaps Y301D (already in the parent)/Y302D (already in the parent)): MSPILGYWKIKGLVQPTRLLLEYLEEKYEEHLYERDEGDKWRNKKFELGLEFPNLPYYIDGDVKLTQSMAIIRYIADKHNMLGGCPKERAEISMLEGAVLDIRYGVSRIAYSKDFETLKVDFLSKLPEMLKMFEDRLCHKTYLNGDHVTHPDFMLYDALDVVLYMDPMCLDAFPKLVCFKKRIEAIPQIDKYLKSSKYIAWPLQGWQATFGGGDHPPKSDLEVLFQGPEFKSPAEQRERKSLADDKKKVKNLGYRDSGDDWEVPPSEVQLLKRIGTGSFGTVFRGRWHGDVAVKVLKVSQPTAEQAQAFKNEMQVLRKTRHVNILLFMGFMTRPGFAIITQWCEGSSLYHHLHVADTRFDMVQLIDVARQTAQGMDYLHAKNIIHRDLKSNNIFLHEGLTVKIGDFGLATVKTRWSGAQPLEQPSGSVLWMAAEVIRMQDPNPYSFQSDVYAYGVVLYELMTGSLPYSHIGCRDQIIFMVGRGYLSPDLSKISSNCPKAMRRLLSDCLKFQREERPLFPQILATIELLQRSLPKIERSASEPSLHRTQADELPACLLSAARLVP

As for `Cc1ncc(NC(=O)c2ccnc(C(C)(C)F)c2)cc1-c1cccc(-c2cc(NC(=O)C3CC3)ncn2)c1` [Example 249], the IC50 in assay [1] was 1 to 10 µM; in assay [2] it was 500 to 1000 nM; in assay [3], not above 100 nM; in assay [4], not above 100 nM.

Consider `Cc1ccc(NC(=O)c2cnnc(C3CC3)c2)cc1-c1ccnc(-c2ccnc(NC(=O)C3CC3)c2)n1` [Example 250], for which the IC50 is 1 to 10 µM in assay [1], 1000 to 10000 nM in assay [2], 100 to 500 nM in assay [3] and not above 100 nM in assay [4].

Regarding `Cc1ncc(NC(=O)c2ccnc(C(C)(C)C#N)c2)cc1-c1ccnc(-c2ccnc(NC(=O)C3CC3)c2)c1` [Example 251], the half-maximal inhibitory concentration (IC50) was 1 to 10 µM in assay [1], 1000 to 10000 nM in assay [2], not above 100 nM in assay [3] and not above 100 nM in assay [4].

For the compound `Cc1cc(F)c(NC(=O)c2cnnc(C3CC3)c2)cc1-c1nccc(-c2ccnc(NC(=O)C3CC3)c2)n1` [Example 252], the half-maximal inhibitory concentration (IC50) in assay [1] is 1 to 10 µM; in assay [2], 1000 to 10000 nM; in assay [3], 1000 to 10000 nM; in assay [4], not above 100 nM.

For the compound `Cc1ncc(NC(=O)c2ccnc(C3CC3)c2)cc1-c1ccnc(-c2ccnc(NC(=O)C3CC3)c2)c1` [Example 253], the half-inhibitory concentration (IC50) was 1 to 10 µM in assay [1], 1000 to 10000 nM in assay [2], 100 to 500 nM in assay [3] and not above 100 nM in assay [4].

On to `Cc1ncc(NC(=O)c2cnnc(C3CC3)c2)cc1-c1ccnc(-c2ccnc(NC(=O)C3CC3)c2)c1` [Example 254], for which the half-inhibitory concentration (IC50) in assay [1] was 1 to 10 µM; in assay [2], 1000 to 10000 nM; in assay [3], 1000 to 10000 nM; in assay [4], not above 100 nM.

Turning to `Cc1ncc(NC(=O)c2ccnc(C3CC3)c2)cc1-c1cnc(C)c(-c2ccnc(NC(=O)C3CC3)c2)c1` [Example 256], the half-maximal inhibitory concentration (IC50) in assay [1] was 1 to 10 µM; in assay [2] it was 1000 to 10000 nM; in assay [3], 500 to 1000 nM; in assay [4] it was not above 100 nM.

For `Cc1ccc(NC(=O)c2ccnc(C(C)(C)C#N)c2)cc1-c1ccnc(-c2ccnc(NC(=O)C3CC3)c2)n1` [Example 257], the half-inhibitory concentration (IC50) in assay [1] was 1 to 10 µM; in assay [2], 500 to 1000 nM; in assay [3], not above 100 nM; in assay [4], not above 100 nM.

Turning to `Cc1cc(F)c(NC(=O)c2ccnc(C3(C#N)CC3)c2)cc1-c1ccnc(-c2ccnc(NC(=O)C3CC3)c2)n1` [Example 262], the 50% inhibitory concentration (IC50) was 1 to 10 µM in assay [1], 500 to 1000 nM in assay [2], not above 100 nM in assay [3] and not above 100 nM in assay [4].

For the compound `Cc1cc(F)c(NC(=O)c2cnnc(C3CC3)c2)cc1-c1ccnc(-c2ccnc(NC(=O)C3CC3)c2)n1` [Example 263], the IC50 in assay [1] is 1 to 10 µM; in assay [2], 1000 to 10000 nM; in assay [3] it was 1000 to 10000 nM; in assay [4] it was not above 100 nM.

`CNC(=O)c1cc(-c2cc(-c3cc(NC(=O)c4ccnc(C(C)(C)OC)c4)ccc3C)ccn2)ccn1` [Example 264]: the 50% inhibitory concentration (IC50) in assay [1] is 1 to 10 µM; in assay [2], 1000 to 10000 nM; in assay [3] it was not above 100 nM; in assay [4], not above 100 nM.

With `CNC(=O)c1cc(-c2cc(-c3cc(NC(=O)c4ccnc(C5(C#N)CC5)c4)ccc3C)ccn2)ccn1` [Example 265], the IC50 was 1 to 10 µM in assay [1], 1000 to 10000 nM in assay [2], not above 100 nM in assay [3] and not above 100 nM in assay [4].

With `Cc1ccc(NC(=O)c2ccnc(C(C)(C)C#N)c2)cc1-c1cccc(-c2cc(N)ncn2)c1` [Example 267], the concentration for half-maximal inhibition (IC50) was 1 to 10 µM in assay [1], 1000 to 10000 nM in assay [2], 100 to 500 nM in assay [3] and not above 100 nM in assay [4].

With `Cc1ncc(NC(=O)c2ccnc(C3CC3)c2)cc1-c1cccc(-c2ccnc(NC(=O)C3CC3)c2)n1` [Example 270], the half-maximal inhibitory concentration (IC50) was 1 to 10 µM in assay [1], 1000 to 10000 nM in assay [2], 100 to 500 nM in assay [3] and not above 100 nM in assay [4].

Consider `Cc1cc(F)c(NC(=O)c2ccnc(C(F)(F)F)c2)cc1-c1cncc(-c2ccnc(NC(=O)C3CC3)c2)n1` [Example 271], for which the 50% inhibitory concentration (IC50) was 1 to 10 µM in assay [1], 500 to 1000 nM in assay [2], 500 to 1000 nM in assay [3] and not above 100 nM in assay [4].

As to `Cc1cc(C(=O)Nc2cnc(C)c(-c3ccnc(-c4ccnc(NC(=O)C5CC5)c4)n3)c2)ccn1` [Example 273], the IC50 is 1 to 10 µM in assay [1], 1000 to 10000 nM in assay [2], 1000 to 10000 nM in assay [3] and not above 100 nM in assay [4].

`COC(C)(C)c1cc(C(=O)Nc2cnc(C)c(-c3cccc(-c4cc(NC(=O)C5CC5)ncn4)c3)c2)ccn1` [Example 274]: the 50% inhibitory concentration (IC50) in assay [1] was 1 to 10 µM; in assay [2], 1000 to 10000 nM; in assay [3], not above 100 nM; in assay [4], not above 100 nM.

As for `Cc1ncc(NC(=O)c2cnnc(C3CC3)c2)cc1-c1ccnc(-c2ccnc(NC(=O)C3CC3)c2)n1` [Example 278], the 50% inhibitory concentration (IC50) in assay [1] was 1 to 10 µM; in assay [2], 1000 to 10000 nM; in assay [3], 1000 to 10000 nM; in assay [4], not above 100 nM.

Take `Cc1ncc(NC(=O)c2cnn(C(C)(C)C)c2)cc1-c1cccc(-c2cc(NC(=O)C3CC3)ncn2)c1` [Example 279]: the half-maximal inhibitory concentration (IC50) was 1 to 10 µM in assay [1], 1000 to 10000 nM in assay [2], 100 to 500 nM in assay [3] and not above 100 nM in assay [4].

For the origin of these results see patent US12319655B2, “RAF kinase inhibitors and methods of use thereof” (Deciphera Pharmaceuticals, LLC, priority 2021, dated 2025).
